Experimental data: patent publication US8389523B2, “Substituted quinoxaline and an agrochemical composition thereof” (Kumiai Chemical Industry Co., Ltd., priority 2007, dated 2013)

Key:
Type in all cases: in vivo
Design in all cases: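 grade 0 to 5 of growth suppression where 5 is 90% or more and 0 below 10%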
[1] = tested on: Abutilon theophrasti medicus; experiment: Herbicidal effects in upland field soil treatment (Test Example 2); details: 1000 g active ingredient per hectare, 21st day after treatment, criteria of Table 138
How it was run: (§1)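 Seeds sown in upland soil and covered; surface sprayed with water-diluted wettable powder, 1000 g a.i./ha, spray volume 1000 L/ha. Greenhouse growth, visual herbicidal rating at day 21.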

Amaranthus viridis L. [2] = experiment: as above; details: 1000 g active ingredient per hectare, 21st day after treatment, criteria of Table 138
How it was run: as §1

[3] = tested on: Echinochloa oryzicola Vasing; experiment: Herbicidal effects in paddy field soil treatment (Test Example 1); details: paddy field soil treatment; 1000 g of the active ingredient per hectare; wettable powder added dropwise on water surface; 21st day after treatment
How it was run: (§2)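 Paddy soil pre-emergence test: seeds sown, flooded 3 cm; next day wettable powder in water applied dropwise to water surface, 1000 g a.i./ha; greenhouse; effect rated visually on scale at 21 d post-treatment.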

[4] = tested on: Monochoria vaginalis (Burm. f.) Presl var. plantaginea (Roxb.) Solms-Laub.; experiment: as above; details: paddy field soil treatment; 1000 g of the active ingredient per hectare; wettable powder added dropwise on water surface; 21st day after treatment
How it was run: as §2

[5] = tested on: Scirpus juncoides Roxb. var. ohwianus. T. Koyama; experiment: as above; details: paddy field soil treatment; 1000 g of the active ingredient per hectare; wettable powder added dropwise on water surface; 21st day after treatment
How it was run: as §2

[6] = tested on: Abutilon theophrasti medicus; experiment: Herbicidal effects in upland field foliar treatment (Test Example 3); details: 1000 g active ingredient per hectare, 14th day after treatment, criteria of Table 138
How it was run: (§3)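 Greenhouse pot test, upland soil; 2-wk-old plants sprayed from above with water-diluted wettable powder (1000 L/ha spray volume, 1000 g a.i./ha). Regrown in greenhouse; visual herbicidal score on day 14 post-treatment.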

Amaranthus viridis L. [7] = experiment: as above; details: 1000 g active ingredient per hectare, 14th day after treatment, criteria of Table 138
How it was run: as §3

[8] = tested on: Echinochloa crus-galli (L.) P. Beauv. var. crus-galli; experiment: as above; details: 1000 g active ingredient per hectare, 14th day after treatment, criteria of Table 138
How it was run: as §3

Row | Structure (SMILES) | herbicidal effect (index) on Abutilon theophrasti medicus [1] | herbicidal effect (index) on Amaranthus viridis L. (Amaranthus viridis L. [2]) | Herbicidal effects index, Echinochloa oryzicola Vasing [3] | Herbicidal effects index, Monochoria vaginalis (Burm. f.) Presl var. plantaginea (Roxb.) Solms-Laub. [4] | Herbicidal effects index, Scirpus juncoides Roxb. var. ohwianus. T. Koyama [5] | herbicidal effect (index) on Abutilon theophrasti medicus [6] | herbicidal effect (index) on Amaranthus viridis L. (Amaranthus viridis L. [7]) | herbicidal effect (index) on Echinochloa crus-galli (L.) P. Beauv. var. crus-galli [8]
1 | Cn1nc(-n2c(=O)c(C(=O)C3=C(O)CCCC3=O)nc3ccccc32)cc1C(F)(F)F [I-267] | 5 | 5 | 5 | 5 | 5 | 5 | 5 | 5
2 | O=C1CCCC(O)=C1C(=O)c1nc2ccccc2n(-c2nc(C(F)(F)F)co2)c1=O [I-268] | 5 | 5 | 5 | 5 | 5 | 5 | 5 | 5
3 | O=C1CCCC(O)=C1C(=O)c1nc2ccccc2n(-c2nncs2)c1=O [I-269] | 5 | 5 | 5 | 5 | 5 | 5 | 5 | 5
4 | Cc1nnc(-n2c(=O)c(C(=O)C3=C(O)CCCC3=O)nc3ccccc32)s1 [I-270] | 5 | 5 | 5 | 5 | 5 | 5 | 5 | 5
5 | O=C1CCCC(O)=C1C(=O)c1nc2ccccc2n(-c2ccc(Br)cn2)c1=O [I-271] | 5 | 5 | 5 | 5 | 5 | 5 | 5 | 5
6 | Cc1cccnc1-n1c(=O)c(C(=O)C2=C(O)CCCC2=O)nc2ccccc21 [I-272] | 5 | 5 | 5 | 5 | 5 | 5 | 5 | 5
7 | CN1C(=O)COc2ccc(-n3c(=O)c(C(=O)C4=C(O)CCCC4=O)nc4ccccc43)cc21 [I-275] | 4 | 5 | 4 | 5 | 5 | 4 | 5 | 5
8 | O=C1CCCC(O)=C1C(=O)c1nc2ccccc2n(-c2ccc3occc3c2)c1=O [I-277] | 4 | 5 | 5 | 5 | 5 | 5 | 5 | 5
9 | Cc1cc(-n2c(=O)c(C(=O)C3=C(O)CCCC3=O)nc3cc(F)ccc32)no1 [I-281] | 5 | 5 | 5 | 5 | 5 | 5 | 5 | 5
10 | COc1ccc(-n2c(=O)c(C(=O)C3=C(O)CCCC3=O)nc3c(F)cc(F)cc32)cn1 [I-283] | 5 | 5 | 4 | 5 | 5 | 5 | 5 | 4
11 | CCCCn1c(=O)c(C(=O)C2=C(O)CCCC2=O)nc2c(Cl)cccc21 [I-364] | 5 | 5 | 4 | 5 | 5 | 5 | 5 | 5
12 | Cc1cnc(-n2c(=O)c(C(=O)C3=C(O)CCCC3=O)nc3ccccc32)cn1 [I-373] | 5 | 5 | 5 | 5 | 5 | 5 | 5 | 5
13 | Cc1cnc(-n2c(=O)c(C(=O)C3=C(O)CCCC3=O)nc3ccccc32)s1 [I-380] | 5 | 5 | 4 | 5 | 5 | 5 | 5 | 4
14 | O=C1CCCC(O)=C1C(=O)c1nc2ccccc2n(-c2ccccc2)c1=O [II-1] | 5 | 5 | 5 | 5 | 5 | 5 | 5 | 5
15 | O=C(C1=C(O)C2CCC(C2)C1=O)c1nc2ccccc2n(-c2ccccc2)c1=O (stereo not drawn) [II-4] | 4 | 5 | 5 | 5 | 5 | 5 | 5 | 4
16 | CC1(C)C(=O)C(C(=O)c2nc3ccccc3n(-c3ccccc3)c2=O)=C(O)C(C)(C)C1=O [II-5] | 5 | 5 | 5 | 5 | 5 | 5 | 5 | 5
17 | O=C1CCCC(O)=C1C(=O)c1nc2ccccc2n(-c2ccccc2F)c1=O [II-6] | 5 | 5 | 5 | 5 | 5 | 5 | 5 | 5
18 | O=C1CCCC(O)=C1C(=O)c1nc2ccccc2n(-c2cccc(F)c2)c1=O [II-7] | 5 | 5 | 5 | 5 | 5 | 5 | 5 | 5
